Data: patent US4370337A, “1,2,4-Triazole derivatives as antifertility agents and pharmaceutical compositions containing them” (Gruppo Lepetit S.p.A., priority 1980, dated 1983)

Key:
hamsters = experiment: Post-coital antifertility activity in mated hamsters, oral route; format: in vivo, Syrian golden hamster; details: for reduction of live fetuses: oral, 20 mg/Kg, hamsters
Experimental: (§1) Representative experiments for assessing antifertility activity were carried out with female Syrian golden hamsters weighing 100 to 130 g. The animals were mated and the presence of sperm in the vagina was taken as evidence of mating. The day sperm was detected was considered day one of pregnancy, since in our laboratory and those of other investigators 90 to 100% of animals that mate as evidenced by vaginal sperm are pregnant.
(§2) Pregnancy was later confirmed at the time of autopsy by presence of fetuses or implantation sites in the uterus.
(§3) Even if an animal aborts the fetus, implantation scars still remain as evidence that the animal has been pregnant.
The animals were autopsied on day 14 of pregnancy and the uteri were examined for evidence of pregnancy (implantation sites, fetal resorptions or live fetuses), hemorrage, and evidence of abnormalities of the uterus, placenta or fetuses. A compound was considered to be active if there was a reduction of live fetuses in at least 60% of the treated animals and the presence of implantation sites proves the animal to have been pregnant. […] The compounds were then studied for dose-activity relationships and the corresponding ED50 values i.e., 100% activity (absence of live fetuses) in 50% of the animals, were also determined. The following table reports the ED50 values of some representative compounds of the invention:
Favorable results were also obtained by administering the compounds of the invention by oral route. The experiments for assessing this property were carried out on hamsters following the same procedure as above, with the obvious exception that the compounds were adminstered orally instead of subcutaneously.

[1] = tested on: female Syrian golden hamsters; experiment: Post-coital antifertility activity in mated hamsters, subcutaneous (autopsy on day 14: implantation sites, live fetuses); format: in vivo, Syrian golden hamster; details: for ED50: Mesocricetus auratus, sc, s.c. hamsters, days 4-8 of pregnancy, read-out: ED50 (100% activity, i.e. absence of live fetuses, in 50% of the animals); for antifertility activity (active according to the criteria): s.c. in sesame oil, 10 mg/kg daily for 5 days (days 4-8 of pregnancy), hamsters
Experimental: as §1, §2, §3
The animals were autopsied on day 14 of pregnancy and the uteri were examined for evidence of pregnancy (implantation sites, fetal resorptions or live fetuses), hemorrage, and evidence of abnormalities of the uterus, placenta or fetuses.

Row | SMILES | ED50 (hamsters; Mesocricetus auratus, po, p.o. hamsters, read-out: ED50 (100% activity, i.e. absence of live fetuses, in 50% of the animals)) [mg/kg] | reduction of live fetuses (hamsters) [%] | ED50 [1] [mg/kg] | antifertility activity (active according to the criteria) [1]
1 | COc1cccc(-c2n[nH]c(-c3ccccc3CO)n2)c1 [Example 1, 5-(2-hydroxymethylphenyl)-3-(3-methoxyphenyl)-1H-,1,2,4-triazole] | 10 | 60 | 0.08 | active
2 | COc1cccc(-c2nc(-c3ccccc3C=O)n[nH]2)c1 [Example 3, 2-[5-(3-methoxyphenyl)-1H-1,2,4-triazol-3yl]benzaldehyde] | – | 60 | 0.1 | active
